In US5464869A, “Use of dimercaptan acids, salts and metabolites thereof as antiretroviral treatments” (Ethicon, Inc., priority 1995, dated 1995):
Values joined by “and” are separate entries in the source; they are usually repeats but may differ in a detail not shown here. Equal entries are not always repeated.

Columns and labels:
HIV-1 = assay: microbe, parasite or virus in culture
Excerpt: (§1) FIGS. 1-4 are plots of the log10 of the meso-2,3 dimercaptosuccinic acid concentrations (as moles/L or Molar) against the measured test values expressed as a percentage of the uninfected, untreated control values.
The procedure used to test dimercaptosuccinic acid's activity against Human Immunodeficiency Virus (HIV) is the assay developed by Owen S. Weislow et al. described in "Journal of the National Cancer Institute," Vol. 81, No. 8, April 19, 1989 which is hereby incorporated herein by reference. The assay basically involves the killing of T4 lymphocytes by HIV. Small amounts of HIV are added to cells, and a complete cycle of virus reproduction is necessary to obtain the required cell killing. Agents that interact with virions, cells, or virus gene-products to interfere with viral activities will protect cells from cytolysis. All tests are compared with at least one positive (e.g., AZT-treated) control done at the same time under identical conditions.
(§2) 1. Dimercaptosuccinic acid was dissolved in dimethyl sulfoxide (unless otherwise instructed) then diluted 1:100 in cell culture medium before preparing serial half-log10 dilutions. T4 lymphocytes (CEM cell line) were added and after a brief interval HIV-1 is added, resulting in a 1:200 final dilution of the compound. Uninfected cells with the compound serve as a toxicity control, and infected and uninfected cells without the compound serve as basic controls.
(§3) 2. The cultures were incubated at 37° in a 5% carbon dioxide atmosphere for 6 days.
(§4) 3. The tetrazolium salt, XTT, was added to all wells, and cultures were incubated to allow formazan color development by viable cells.
(§5) 4. Individual wells were analyzed spectrophotometrically to quantitate formazan production, and in addition were viewed microscopically for detection of viable cells and confirmation of protective activity.
(§6) 5. Drug-treated virus-infected cells were compared with drug-treated noninfected cells and with other appropriate controls (untreated infected and untreated noninfected cells, drug-containing wells without cells, etc.) on the same plate.
6. The data was reviewed in comparison with four other tests done at the same time and a determination about activity was made.

[1] = tested on: T4 lymphocytes (CEM cell line); assay: Toxicity control: growth inhibition of uninfected T4 lymphocytes (CEM cell line), XTT; settings: for Uninfected response: uninfected CEM cells, vs uninfected untreated control, 6 days, 8640 min
Protocol: as §1, §2, §3, §4, §5, §6

[2] = lead, mercury and arsenic; numerous animal studies; cited from earlier work
[3] = calcium, magnesium, manganese, iron and zinc; cited from earlier work

In the case of `O=C(O)[C@@H](S)[C@@H](S)C(=O)O` [dimercaptosuccinic acid, meso-2,3 dimercaptosuccinic acid], the Infected response (HIV-1; 1.40 × 10^-4 Molar, HIV-1 infected CEM cells, vs uninfected untreated control, 6 days, 140 µM, 8640 min, 140 µM) is reported as 84.32% of Control and 103.60% of Control and 95.01% of Control, the “Conclusion (determination of activity)” value (HIV-1; HIV-1, CEM cells, 6 days, Tables I-IV) is reported as “CONFIRMED ACTIVE” and the viability at 140 µM (HIV-1; Human immunodeficiency virus 1, CCRF-CEM, in Homo sapiens, 144 h, read-out: Infected response, 1.40 × 10^-4 Molar, HIV-1 infected CEM cells, vs uninfected untreated control, 6 days) is reported as 94.3%. For the same molecule, the “Overall conclusion on antiretroviral effectiveness” value (HIV-1; drawn from data of Tables I-IV) was “effective as a treatment for retroviruses in warm blooded animals”, the Uninfected response ([1]; 1.40 × 10^-4 Molar, 140 µM, 140 µM) was 80.02% of Control and 81.43% of Control and 107.87% of Control and 105.07% of Control and the Uninfected response ([1]; 1.40 × 10^-5 Molar, 14 µM, 14 µM) was 74.62% of Control and 87.58% of Control and 118.28% of Control and 102.83% of Control. For the same molecule, the Uninfected response ([1]; 4.30 × 10^-4 Molar, 430 µM, 430 µM) was 106.57% of Control and 107.46% of Control and 124.09% of Control and 128.49% of Control, the Uninfected response ([1]; 4.40 × 10^-5 Molar, 44 µM, 44 µM) was 84.59% of Control and 85.17% of Control and 125.62% of Control and 102.99% of Control and the IC50 ([1]; Homo sapiens, CCRF-CEM, 144 h, read-out: 50% inhibitory concentration (IC50)) was over 1400 µM. The “Heavy metal chelating effect” value [2] was “effective heavy metal chelating agent for lead, mercury and arsenic” and the “Effect on excretion of essential minerals” value [3] was “not to increase the excretion of essential minerals”.
